Results as given in ChEMBL document CHEMBL1201862, “PubChem BioAssay data set” (2004).
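Method: 48-hour compound exposure of cells in 96-well plates, five concentrations, linear interpolation of endpoints. At the GI50, growth is halved.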 Activity calls are given as the source filed them. No stated cut-off is given here; in the data, active = GI50 up to about 1.1 µM and inactive = higher.

Assays:
Test in all cases: inhibition of tumour cell growth, NCI panel, 48 h
CAKI-1 = system: CAKI-1
CCRF-CEM = system: CCRF-CEM
COLO 205 = system: COLO 205
DU-145 = system: DU-145
EKVX = system: EKVX
HCC 2998 = system: HCC 2998
HCT-116 = system: HCT-116
HCT-15 = system: HCT-15
HOP-62 = system: HOP-62
HOP-92 = system: HOP-92
LOX IMVI = system: LOX IMVI
M14 = system: M14
Malme-3M = system: Malme-3M
NCI-H522 = system: NCI-H522
OVCAR-4 = system: OVCAR-4
RXF 393 = system: RXF 393
SF-539 = system: SF-539
T47D = system: T47D
UACC-62 = system: UACC-62
A498 = system: A498

SMILES | GI50 (CAKI-1) | GI50 (CCRF-CEM) | GI50 (COLO 205) | GI50 (DU-145) | GI50 (EKVX) | GI50 (HCC 2998) | GI50 (HCT-116) | GI50 (HCT-15) [µM] | GI50 (HOP-62) | GI50 (HOP-92) | GI50 (LOX IMVI) | GI50 (M14) | GI50 (Malme-3M) | GI50 (NCI-H522) | GI50 (OVCAR-4) | GI50 (RXF 393) | GI50 (SF-539) | GI50 (T47D) | GI50 (UACC-62) | GI50 (A498)
CCOC(=O)C(NC(=O)c1ccccc1)(Nc1cc(C)on1)C(F)(F)F (stereo unspecified) | > 100 µM (inactive) | > 100 µM (inactive) | > 100 µM (inactive) | > 100 µM (inactive) | > 100 µM (inactive) | > 100 µM (inactive) | > 100 µM (inactive) | > 100 | > 100 µM (inactive) | > 100 µM (inactive) | > 100 µM (inactive) | > 100 µM (inactive) | > 100 µM (inactive) | > 100 µM (inactive) | > 100 µM (inactive) | > 100 µM (inactive) | > 100 µM (inactive) | > 100 µM (inactive) | > 100 µM (inactive) | –
COC(=O)c1nc(N)nc(O)c1CCCCCc1c(O)nc(N)nc1C(=O)OC | > 50 µM (inactive) | > 50 µM (inactive) | > 50 µM (inactive) | – | > 50 µM (inactive) | > 50 µM (inactive) | – | > 50 | > 50 µM (inactive) | > 50 µM (inactive) | > 50 µM (inactive) | > 50 µM (inactive) | > 50 µM (inactive) | > 50 µM (inactive) | > 50 µM (inactive) | > 50 µM (inactive) | > 50 µM (inactive) | – | > 50 µM (inactive) | > 50 µM (inactive)
CCOC(=O)[C@@]1(C)CC(O)C(=O)N1C (stereo partly specified) | > 100 µM (inactive) | > 100 µM (inactive) | > 100 µM (inactive) | > 100 µM (inactive) | > 100 µM (inactive) | > 100 µM (inactive) | > 100 µM (inactive) | > 100 | > 100 µM (inactive) | > 100 µM (inactive) | > 100 µM (inactive) | > 100 µM (inactive) | > 100 µM (inactive) | > 100 µM (inactive) | > 100 µM (inactive) | > 100 µM (inactive) | > 100 µM (inactive) | > 100 µM (inactive) | > 100 µM (inactive) | –
COc1cc(C(CC(OC)OC)=C(C#N)C#N)cc(OC)c1OC | 34.3 µM (inactive) | 5.36 µM (inactive) | 9.35 µM (inactive) | – | 34.9 µM (inactive) | 18.7 µM (inactive) | 18.2 µM (inactive) | 16.9 | – | 17.1 µM (inactive) | 10.5 µM (inactive) | – | 26.1 µM (inactive) | 13.9 µM (inactive) | – | 25.2 µM (inactive) | 13.7 µM (inactive) | – | 26.7 µM (inactive) | 8.13 µM (inactive)
COc1ccc(C(=O)C#Cc2cn(C3CC(O)C(CO)O3)c(=O)[nH]c2=O)cc1 (stereo unspecified) | > 100 µM (inactive) | > 10 µM (inactive) | 33.3 µM (inactive) | > 100 µM (inactive) | > 100 µM (inactive) | > 100 µM (inactive) | 39.7 µM (inactive) | > 100 | > 100 µM (inactive) | 21.7 µM (inactive) | – | 17.9 µM (inactive) | 10.4 µM (inactive) | 11.9 µM (inactive) | 48.6 µM (inactive) | 52.2 µM (inactive) | 19.3 µM (inactive) | 19.2 µM (inactive) | 55.5 µM (inactive) | –
COc1ccc(C(=O)O[C@H]2[C@@H]3C=CO[C@@H](OC4OC(CO)C(O)C(O)C4O)[C@@H]3[C@@]3(CO)O[C@@H]23)cc1O (stereo partly specified) | > 100 µM (inactive) | > 100 µM (inactive) | > 100 µM (inactive) | – | > 100 µM (inactive) | > 100 µM (inactive) | – | – | > 100 µM (inactive) | > 100 µM (inactive) | > 100 µM (inactive) | > 100 µM (inactive) | > 100 µM (inactive) | > 100 µM (inactive) | > 100 µM (inactive) | > 100 µM (inactive) | > 100 µM (inactive) | – | > 100 µM (inactive) | > 100 µM (inactive)
CC(=O)OCC1OC(c2c(OC(C)=O)cc(C)c3c(=O)cc(/C(C(C)=O)=C(\C)O)oc23)C(OC(C)=O)C(OC(C)=O)C1OC(C)=O (stereo unspecified) | > 100 µM (inactive) | > 100 µM (inactive) | > 100 µM (inactive) | > 100 µM (inactive) | > 100 µM (inactive) | > 100 µM (inactive) | > 100 µM (inactive) | > 100 | > 100 µM (inactive) | > 100 µM (inactive) | – | > 100 µM (inactive) | > 100 µM (inactive) | > 100 µM (inactive) | > 100 µM (inactive) | > 100 µM (inactive) | > 100 µM (inactive) | > 100 µM (inactive) | > 100 µM (inactive) | –
Cc1c2ccccc2c(=O)n2c(-c3ccccn3)cccc12 | > 100 µM (inactive) | > 100 µM (inactive) | > 100 µM (inactive) | – | > 100 µM (inactive) | > 100 µM (inactive) | > 100 µM (inactive) | > 100 | > 100 µM (inactive) | > 100 µM (inactive) | > 100 µM (inactive) | 78.7 µM (inactive) | > 100 µM (inactive) | > 100 µM (inactive) | > 100 µM (inactive) | > 100 µM (inactive) | > 100 µM (inactive) | – | > 100 µM (inactive) | 29.8 µM (inactive)
O=C(Nc1ccccc1-c1nc2ccccc2[nH]c1=O)c1ccccc1 | 29.9 µM (inactive) | > 100 µM (inactive) | > 100 µM (inactive) | – | 25.3 µM (inactive) | 15.4 µM (inactive) | 20.1 µM (inactive) | 35.2 | 19.5 µM (inactive) | 21.4 µM (inactive) | 24.3 µM (inactive) | 59.6 µM (inactive) | 32.1 µM (inactive) | 14.8 µM (inactive) | 19.9 µM (inactive) | 21.2 µM (inactive) | 20.6 µM (inactive) | – | 26.1 µM (inactive) | 20.4 µM (inactive)
O=c1[nH]nc(Nc2ccccc2)c2nnn(C3CCCCC3)c12 | > 100 µM (inactive) | > 100 µM (inactive) | > 100 µM (inactive) | > 100 µM (inactive) | > 100 µM (inactive) | > 100 µM (inactive) | > 100 µM (inactive) | > 100 | > 100 µM (inactive) | > 100 µM (inactive) | > 100 µM (inactive) | > 100 µM (inactive) | > 100 µM (inactive) | – | > 100 µM (inactive) | – | – | – | – | –
S=C1CC(c2ccccc2)Sc2ccccc2N1 (stereo unspecified) | 55 µM (inactive) | > 100 µM (inactive) | > 100 µM (inactive) | 87.1 µM (inactive) | 72.8 µM (inactive) | – | 37 µM (inactive) | 93.3 | 22.8 µM (inactive) | – | > 100 µM (inactive) | 45 µM (inactive) | 67.1 µM (inactive) | 31.3 µM (inactive) | 49.2 µM (inactive) | 28.4 µM (inactive) | – | > 100 µM (inactive) | 51.1 µM (inactive) | –
COc1ccc(Cc2c(N)[nH]c(=O)n(C)c2=O)cc1 | 96.6 µM (inactive) | – | > 100 µM (inactive) | – | 10.6 µM (inactive) | > 100 µM (inactive) | > 100 µM (inactive) | 92.7 | 31.1 µM (inactive) | 3.9 µM (inactive) | 56 µM (inactive) | > 100 µM (inactive) | > 100 µM (inactive) | > 100 µM (inactive) | 89.7 µM (inactive) | > 100 µM (inactive) | > 100 µM (inactive) | > 100 µM (inactive) | > 100 µM (inactive) | > 100 µM (inactive)
CC(C)(C)OC(=O)N1CCC[C@H]1CSC[C@@H]1CCCN1C(=O)OC(C)(C)C | 32.4 µM (inactive) | 24.2 µM (inactive) | 16.8 µM (inactive) | 44 µM (inactive) | 32.8 µM (inactive) | 39.8 µM (inactive) | 25.6 µM (inactive) | 27.9 | 41.5 µM (inactive) | 8.43 µM (inactive) | 17.6 µM (inactive) | 18.6 µM (inactive) | 25.6 µM (inactive) | 24 µM (inactive) | 28.7 µM (inactive) | 24.8 µM (inactive) | – | 20.6 µM (inactive) | 21.7 µM (inactive) | –
Cc1nc2c(O)cc3c4c(=O)n(C)c(=O)n(C)c4n(Cc4ccccc4)c3c2nc1C | – | 4.99 µM (inactive) | 13.3 µM (inactive) | 18.3 µM (inactive) | 24.3 µM (inactive) | 22.7 µM (inactive) | 14.4 µM (inactive) | 17.9 | 17.6 µM (inactive) | 13.8 µM (inactive) | 18.9 µM (inactive) | 17.6 µM (inactive) | 18.7 µM (inactive) | – | 11.1 µM (inactive) | 13.2 µM (inactive) | 16 µM (inactive) | – | 18.2 µM (inactive) | 33 µM (inactive)
C[Si](C)(OCCS(=O)(=O)O)OC(=C1S(=O)(=O)OCCOS1(=O)=O)c1cccc2ccccc12 | > 100 µM (inactive) | > 100 µM (inactive) | > 100 µM (inactive) | > 100 µM (inactive) | > 100 µM (inactive) | 90.6 µM (inactive) | > 100 µM (inactive) | > 100 | > 100 µM (inactive) | > 100 µM (inactive) | > 100 µM (inactive) | > 100 µM (inactive) | > 100 µM (inactive) | – | > 100 µM (inactive) | 37.2 µM (inactive) | > 100 µM (inactive) | – | – | 98.4 µM (inactive)
CSc1ccc2c(cc1=O)[C@@H](NC(=O)c1ccc(Cl)cc1)CCc1cc(O)c(O)c(O)c1-2 | 45.9 µM (inactive) | 28.1 µM (inactive) | 62.5 µM (inactive) | – | 69.2 µM (inactive) | > 100 µM (inactive) | 18.2 µM (inactive) | 21.6 | 57.4 µM (inactive) | > 100 µM (inactive) | 18.6 µM (inactive) | 34.7 µM (inactive) | > 100 µM (inactive) | 15.4 µM (inactive) | 29.6 µM (inactive) | > 100 µM (inactive) | 29.8 µM (inactive) | – | 22.5 µM (inactive) | > 100 µM (inactive)
